Source: patent US11400106B2, “Methods for inhibiting microbe growth” (priority 2018, dated 2022)
Read-outs that look alike come from different tables or passages of the source.

How the values were obtained:
[1] = tested on: E. coli; assay: microbe, parasite or virus in culture; format: cell-based, Escherichia coli; conditions: for MIC: Escherichia coli, 18 h, read-out: MIC, E. coli, MHB−
Experimental: (§1) In the following experiments, bacterial cells were cultured in 96-well microtiter plates in cation-adjusted Mueller-Hinton Broth (MHB) for 18 h at 37° C. The main strains used were E. coli (K-12 BW25113) (placed in stationary incubator) and S. aureus (Newman Strain) (incubated at 250 r.p.m). Knockout strains (ΔtolcC and ΔychM) were used from the Keio knockout collection (Baba et al., Construction of Escherichia coli K-12 in-frame, single-gene knockout mutants: the Keio collection. Mol Syst Biol 2, 2006 0008, doi:10.1038/msb4100050 (2006)). For MIC determination and checkerboard analyses, Clinical & Laboratory Standards Institute (CLSI) protocol was used. […] DiSC3 loading of S. aureus cells was performed as previously described (Farha et al., Collapsing the proton motive force to identify synergistic combinations against Staphylococcus aureus. Chemistry & biology 20, 1168-1178, doi:10.1016/j.chembiol.2013.07.006 (2013)). CCCP concentration of 20 μM was used. pH adjustments were made by addition of HCl or NaOH. INT assay and ATP bioluminescence assays were performed as previously described (Farha et al., Collapsing the proton motive force to identify synergistic combinations against Staphylococcus aureus. Chemistry & biology 20, 1168-1178, doi:10.1016/j.chembiol.2013.07.006 (2013)). For chemical-genomic studies, the Keio library was grown overnight in cation-adjusted MHB broth, in 384-well plates. From these, treatment plates (25 mM sodium bicarbonate, or a sterile water control) were inoculated and grown for 15 hours at 37° C., in a stationary incubator. Data was normalized according to Mangat et al (Mangat et al., Rank ordering plate data facilitates data visualization and normalization in high-throughput screening. J Biomol Screen 19, 1314-1320, doi:10.1177/1087057114534298 (2014)), with gene products and GO terms mined from EcoCyc. The GFP promoter library (Keseler et al., EcoCyc: fusing model organism databases with systems biology. Nucleic Acids Res 41, D605-612, doi:10.1093/nar/gks1027 (2013)) was grown for 18 hours at ambient temperature with the same inoculation strategy as with the Keio collection. The analysis pipeline of Zaslaver et al (Zaslaver et al., A comprehensive library of fluorescent transcriptional reporters for Escherichia coli. Nat Methods 3, 623-628, doi:10.1038/nmeth895 (2006)) was used to generate maps of promoter activity, from which lists of promoters with increased or decreased activity were compiled.
(§2) Fold enhancement in MICs in the media supplemented with sodium bicarbonate is represented by a positive fold, whereas suppression of activity is represented by a negative fold.
(§3) The effect of sodium bicarbonate on the activity of additional antibacterial agents was investigated. Clinical isolates of various bacteria were obtained from the ATCC and the IHMA.
(§4) The effect of sodium bicarbonate on the activity of cationic antiseptic agents was investigated. Clinical isolates of various bacteria were obtained from the ATCC and the IHMA.

[2] = tested on: S. aureus; assay: microbe, parasite or virus in culture; conditions: for MIC: Staphylococcus aureus, 18 h, read-out: MIC, S. aureus, MHB−; for enhancement of antimicrobial activity in the presence of bicarbonate / effect of 25 mM sodium bicarbonate on antibacterial activity: S. aureus; for enhancement of antimicrobial activity in the presence of bicarbonate: 25 mM sodium bicarbonate; for effect of 25 mM sodium bicarbonate on antibacterial activity: result in words
Experimental: as §1, §2, §3, §4

[3] = MHB in the absence of sodium bicarbonate
[4] = antiseptic agents, MHB in the absence of sodium bicarbonate
[5] = antiseptic agents, MHB in the presence of 25 mM sodium bicarbonate
[6] = antiseptic agents, fold shift in MIC
[7] = antibiotic agents, MHB in the absence of sodium bicarbonate
[8] = antibiotic agents, MHB in the presence of 25 mM sodium bicarbonate
[9] = antibiotic agents, fold shift in MIC, MHB− vs MHB+
[10] = MHB in the presence of 25 mM sodium bicarbonate
[11] = S. aureus (Newman strain) (MSSA)

CCn1cc(C(=O)O)c(=O)c2cc(F)c(N3CCNCC3)cc21 [Norfloxacin]
MIC [1, 3]: 0.125 µg/mL
MIC, S. aureus, MHB+ [2]: 1
MIC [2]: 0.5 µg/mL

CCCCCCCCCCCCCCCC[N+](C)(C)C.[Br-] [Cetrimodium bromide]
MIC, E. coli, MHB [1, 4]: >128 μg of antimicrobial agent/mL of buffer
MIC, E. coli, MHB+ [1, 5]: 32 μg of antimicrobial agent/mL of buffer
Fold, E. coli [1, 6]: 4
MIC, S. aureus, MHB [2, 4]: 16 μg of antimicrobial agent/mL of buffer
MIC, S. aureus, MHB+ [2, 5]: 4 μg of antimicrobial agent/mL of buffer
Fold, S. aureus [2, 6]: 4

CCn1cc(C(=O)O)c(=O)c2cc(F)c(N3CCNC(C)C3)c(F)c21 (centres unmarked) [Lomefloxacin]
MIC, E. coli, MHB+ [1]: 0.125 μg of antimicrobial agent/mL of buffer
MIC [1, 7]: 0.5 µg/mL
MIC, S. aureus, MHB+ [2]: 8 μg of antimicrobial agent/mL of buffer
MIC [2]: 4 µg/mL

CC1CCc2c(N3CCC(O)CC3)c(F)cc3c(=O)c(C(=O)O)cn1c23 (centres unmarked) [Nadifloxacin]
MIC, E. coli, MHB+ [1]: 32 μg of antimicrobial agent/mL of buffer
MIC [1, 7]: 8 µg/mL
MIC, S. aureus, MHB+ [2]: 0.5 μg of antimicrobial agent/mL of buffer
MIC [2]: 0.12 µg/mL

C/C(=C\C(=O)OCCCCCCCCC(=O)O)C[C@@H]1OC[C@H](C[C@@H]2O[C@H]2[C@@H](C)[C@H](C)O)[C@@H](O)[C@H]1O [Mupirocin]
MIC, E. coli, MHB+ [1]: 128 μg of antimicrobial agent/mL of buffer
MIC [1, 7]: 128 µg/mL
MIC, S. aureus, MHB+ [2]: 2 μg of antimicrobial agent/mL of buffer
MIC [2]: 0.5 µg/mL

Nisin
MIC, E. coli, MHB− [1, 7]: >128 μg of antimicrobial agent/mL of buffer
MIC, E. coli, MHB+ [1, 8]: >128 μg of antimicrobial agent/mL of buffer
Fold, E. coli [1, 9]: 1
MIC, S. aureus, MHB− [2, 7]: >128 μg of antimicrobial agent/mL of buffer
MIC, S. aureus, MHB+ [2, 8]: >128 μg of antimicrobial agent/mL of buffer
Fold, S. aureus [2, 9]: 1

N[C@@H]1CCCCN(c2c(F)cc3c(=O)c(C(=O)O)cn(C4CC4)c3c2Cl)C1 [Besifloxacin]
effect of 25 mM sodium bicarbonate on antibacterial activity [1]: increased
MIC [1, 3]: 0.25 µg/mL
MIC, S. aureus, MHB+ [2]: 0.25
MIC [2]: 0.125 µg/mL

Polyhexanide
Fold, E. coli [1]: 2
MIC, E. coli, MHB [1]: 1 μg of antimicrobial agent/mL of buffer
MIC, E. coli, MHB+ [1]: 0.5 μg of antimicrobial agent/mL of buffer
MIC, S. aureus, MHB [2, 4]: 0.5 μg of antimicrobial agent/mL of buffer
MIC, S. aureus, MHB+ [2, 5]: 0.25 μg of antimicrobial agent/mL of buffer
Fold, S. aureus [2, 6]: 2

CC1(C)S[C@@H]2[C@H](NC(=O)[C@H](C(=O)O)c3ccsc3)C(=O)N2[C@H]1C(=O)O [Ticarcillin]
MIC, E. coli, MHB+ [1]: 64 μg of antimicrobial agent/mL of buffer
MIC [1, 7]: 32 µg/mL
MIC, S. aureus, MHB+ [2]: 32 μg of antimicrobial agent/mL of buffer
MIC [2]: 8 µg/mL

CC(C)C[C@H](NC(=O)[C@H](CCCNC(=N)N)NC(=O)CNC(=O)CNC(=O)[C@@H](N)CCCNC(=N)N)C(=O)N[C@H]1CSSC[C@@H](C(=O)N[C@H](C(=O)NCC(=O)N[C@@H](CCCNC(=N)N)C(N)=O)C(C)C)NC(=O)[C@H](C(C)C)NC(=O)[C@@H]2CSSC[C@H](NC(=O)[C@H](Cc3ccc(O)cc3)NC1=O)C(=O)N[C@@H](CCCNC(=N)N)C(=O)N[C@@H](CCCNC(=N)N)C(=O)N[C@@H](CCCNC(=N)N)C(=O)N[C@@H](Cc1ccccc1)C(=O)N2 [Protegrin]
enhancement of antimicrobial activity in the presence of bicarbonate [1]: 8 fold
enhancement of antimicrobial activity in the presence of bicarbonate [2]: 8 fold

Neomycin
Fold, E. coli [1]: 4
Fold, S. aureus [2]: 4
MIC, S. aureus, MHB− [2, 3]: 2
MIC, S. aureus, MHB+ [2, 10]: 0.5

CCN1CCN(C(=O)N[C@@H](C(=O)N[C@@H]2C(=O)N3[C@@H]2SC(C)(C)[C@@H]3C(=O)O)c2ccccc2)C(=O)C1=O [Piperacillin]
MIC [1, 3]: 2 µg/mL
MIC, S. aureus, MHB+ [2]: 1
MIC [2]: 0.25 µg/mL

Cc1cc(NS(=O)(=O)c2ccc(N)cc2)no1 [sulfamethoxazole]
effect of 25 mM sodium bicarbonate on antibacterial activity [1]: remained largely unchanged
effect of 25 mM sodium bicarbonate on antibacterial activity [2]: remained largely unchanged

CCC[C@@H]1C[C@@H](C(=O)N[C@@H]([C@H]2O[C@H](SC)[C@H](O)[C@@H](O)[C@H]2O)[C@H](C)Cl)N(C)C1 [Clindamycin]
MIC, E. coli, MHB+ [1]: 128 μg of antimicrobial agent/mL of buffer
MIC [1, 7]: 128 µg/mL
MIC, S. aureus, MHB+ [2]: 0.12 μg of antimicrobial agent/mL of buffer
MIC [2]: 0.25 µg/mL

CC[C@H]1OC(=O)[C@H](C)[C@@H](O[C@H]2C[C@@](C)(OC)[C@@H](O)[C@H](C)O2)[C@H](C)[C@@H](O[C@@H]2O[C@H](C)C[C@H](N(C)C)[C@H]2O)[C@](C)(OC)C[C@@H](C)C(=O)[C@H](C)[C@@H](O)[C@]1(C)O [Clarithromycin]
MIC, E. coli, MHB+ [1]: 8 μg of antimicrobial agent/mL of buffer
MIC [1, 7]: 64 µg/mL
MIC, S. aureus, MHB+ [2]: 0.062 μg of antimicrobial agent/mL of buffer
MIC [2]: 0.5 µg/mL

Hyaluronic acid
enhancement of antimicrobial activity in the presence of bicarbonate [1]: 64 fold
MIC in MHB [2, 11]: 4 µg/mL
MIC in MHB + 25 mM bicarbonate [2, 11]: 0.0625 µg/mL
enhancement of antimicrobial activity in the presence of bicarbonate [2]: 64 fold

CO[C@H]1/C=C/O[C@@]2(C)Oc3c(C)c(O)c4c(O)c(c(/C=N/N5CCN(C)CC5)c(O)c4c3C2=O)NC(=O)/C(C)=C\C=C\[C@H](C)[C@H](O)[C@@H](C)[C@@H](O)[C@@H](C)[C@H](OC(C)=O)[C@@H]1C [Rifampicin]
MIC [1, 3]: 32 µg/mL
MIC, S. aureus, MHB+ [2]: 0.031
MIC [2]: 0.0078 µg/mL

Teicoplanin
MIC, E. coli, MHB+ [1]: 128 μg of antimicrobial agent/mL of buffer
MIC, E. coli, MHB− [1, 7]: 128 μg of antimicrobial agent/mL of buffer
Fold, E. coli [1, 9]: 1
MIC, S. aureus, MHB− [2, 7]: 1 μg of antimicrobial agent/mL of buffer
MIC, S. aureus, MHB+ [2, 8]: 2 μg of antimicrobial agent/mL of buffer
Fold, S. aureus [2, 9]: −2

Cc1onc(-c2ccccc2Cl)c1C(=O)N[C@@H]1C(=O)N2[C@@H]1SC(C)(C)[C@@H]2C(=O)O [Cloxacillin]
MIC [1, 3]: 256 µg/mL
MIC, S. aureus, MHB+ [2]: 0.5
MIC [2]: 0.031 µg/mL

[H]/N=C(\N/C(=N/[H])NCCCCCCNC(=N)NC(=N)Nc1ccc(Cl)cc1)Nc1ccc(Cl)cc1 [Chlorhexidine]
MIC, E. coli, MHB [1]: 0.5 μg of antimicrobial agent/mL of buffer
MIC, E. coli, MHB+ [1]: 0.125 μg of antimicrobial agent/mL of buffer
MIC, S. aureus, MHB [2]: 0.5 μg of antimicrobial agent/mL of buffer
MIC, S. aureus, MHB+ [2]: 0.0625 μg of antimicrobial agent/mL of buffer

O=CN(O)CCCP(=O)(O)O [Fosmidomycin]
MIC [1, 3]: 16 µg/mL
MIC, S. aureus, MHB+ [2]: >64
MIC [2]: > 64 µg/mL

Polymyxin B
Fold, E. coli [1]: −2
Fold, S. aureus [2]: 8
MIC, S. aureus, MHB− [2, 3]: 256
MIC, S. aureus, MHB+ [2, 10]: 32
effect of 25 mM sodium bicarbonate on antibacterial activity [2]: enhanced

CN[C@@H]1[C@H](O)[C@H](NC)[C@H]2O[C@@]3(O)C(=O)C[C@@H](C)O[C@H]3O[C@@H]2[C@H]1O [Spectinomycin]
MIC [1, 3]: 16 µg/mL
MIC, S. aureus, MHB+ [2]: 8
MIC [2]: 64 µg/mL

C=C(NC(=O)C(=C)NC(=O)c1csc(C2=N[C@@H]3c4csc(n4)[C@H]4NC(=O)c5csc(n5)[C@H]([C@](C)(O)[C@@H](C)O)NC(=O)[C@H]5CSC(=N5)/C(=C/C)NC(=O)[C@H]([C@@H](C)O)NC(=O)c5csc(n5)[C@]3(CC2)NC(=O)[C@H](C)NC(=O)C(=C)NC(=O)[C@H](C)NC(=O)[C@H]([C@@H](C)CC)N[C@@H]2C=Cc3c([C@H](C)O)cc(nc3[C@H]2O)C(=O)O[C@@H]4C)n1)C(N)=O [Thiostrepton]
MIC [1]: > 128 µg/mL
MIC, E. coli, MHB+ [1, 8]: >128 μg of antimicrobial agent/mL of buffer
MIC [2]: 0.5 µg/mL
MIC, S. aureus, MHB+ [2, 8]: 0.12 μg of antimicrobial agent/mL of buffer
